Assay results as given in patent US20210395256A1, “TYROSINE KINASE INHIBITORS, COMPOSITIONS AND METHODS THERE OF” (Betta Pharmaceuticals Co., Ltd., priority 2018, published 2021).

What was measured:
[1] = Plasma protein binding (equilibrium dialysis), human; assay type: in vitro ADME; conditions: for recovery at 6 h, 1 μM / fraction unbound at 6 h, 1 μM: pH 7.4, human plasma, 6 hours dialysis; for fraction unbound at 6 h, 1 μM: read-out: Mean % Bound Human (converted)
Procedure: (§1) Example 204 Plasma Protein Binding Measurements
(§2) The plasma protein binding was measured as the following procedure.
(§3) 1) Preparation of 100 mM sodium phosphate and 150 mM NaCl buffer (PBS)
(§4) A basic solution was prepared by dissolving 14.2 g/L Na2HPO4 and 8.77 g/L NaCl in deionized water and the solution could be stored at 4° C. for up to 7 days. An acidic solution was prepared by dissolving 12.0 g/L NaH2PO4 and 8.77 g/L NaCl in deionized water and the solution could be stored at 4° C. for up to 7 days. The basic solution was titrated with the acidic solution to pH 7.4 and store at 4° C. for up to 7 days. pH was checked on the day of experiment and was adjusted if outside specification of 7.4±0.1.
(§5) Frozen plasma was thawed immediately at room temperature.
(§6) The plasma was centrifuged at 3,220 g for 10 minutes to remove clots and supernatant was collected into a fresh tube. The pH of the plasma was checked and recorded.
(§7) Note: a). Only use plasma that has been thawed no more than twice since arrival. b). Only use plasma within the range of pH 7 to pH 8.
(§8) 3) Preparation of working solutions
(§9) The working solutions of test compounds and control compound ketoconazole were prepared in DMSO at the concentration of 200 μM. And then 3 μL of working solution was removed to mix with 597 μL of human, rat or mouse plasma to achieve a final concentration of 1 μM (0.5% DMSO). Plasma samples were vortexed thoroughly.
(§10) 4) Preparation of dialysis membranes
(§11) The dialysis membranes were soaked in ultrapure water for 60 minutes to separate strips, then in 20% ethanol for 20 minutes, finally in dialysis buffer for 20 minutes.
(§12) 5) Procedure for equilibrium dialysis
(§13) The dialysis apparatus was assembled according to the manufacturer's instruction. Each cell was filled with 120 μL of plasma sample and dialyzed against equal volume of dialysis buffer (PBS). The assay was performed in duplicate. The dialysis plate was sealed and incubated in an incubator at 37° C. with 5% CO2 at 100 rpm for 6 hours. At the end of incubation, seal was removed and 50 μL of samples from both buffer and plasma chambers were transferred to wells of a 96-well plate.
(§14) 6) Procedure for sample analysis
(§15) 50 μL of blank plasma was added to each buffer samples and an equal volume of PBS was supplemented to the collected plasma sample. 300 μL of room temperature quench solution (acetonitrile containing internal standards (1S, 100 nM Alprazolam, 500 nM Labetalol and 2 μM Ketoprofen)) was added to precipitate protein. Samples in plate were vortexed for 5 minutes and centrifuged at 3,220 g for 30 minutes at 4° C. And then 100 μL of the supernatant was transferred to a new 96-well plate with 100 μL or 200 μL water (depends on the LC-MS signal response and peak shape) for LC-MS/MS analysis.
(§16) Calculate the percentages of test compound and control compound bound as follows:
(§17) % Free=(Peak Area Ratiobuffer chamber/Peak Area Ratioplasma chamber)*100
(§18) % Recovery=(Peak Area Ratiobuffer chamber+Peak Area Ratioplasma chamber)/Peak Area Ratio total sample*100
(§19) Peak Area Ratiobuffer chamber means the conc for free fraction
(§20) Peak Area Ratioplasma chamber means the conc for both free and bound fraction
(§21) Peak Area Ratiototal sample means the conc for starting sample before incubation

[2] = Plasma protein binding (equilibrium dialysis), rat; assay type: in vitro ADME; conditions: pH 7.4, 6 hours dialysis; for fraction unbound at 6 h, 1 μM: read-out: Mean % Bound Rat (converted)
Procedure: as §1, §2, §3, §4, §5, §6, §7, §8, §9, §10, §11, §12, §13, §14, §15, §16, §17, §18, §19, §20, §21

Ba/F3-TPM3-NTRK1 = molecular target: T1, Ba/F3-TPM3-NTRK1 (Homo sapiens, UniProt P04629); assay: Ba/F3-TPM3-NTRK1 cells proliferation assay; assay type: cell-based; conditions: 72 h, CellTiter Glo
T1 construct: expressed in transfected cells; host or cells: Ba/F3; the other entry of the earlier key: TPM3 (P06753, Tropomyosin alpha-3 chain)
T1 sequence (P04629 510-796 limits assumed): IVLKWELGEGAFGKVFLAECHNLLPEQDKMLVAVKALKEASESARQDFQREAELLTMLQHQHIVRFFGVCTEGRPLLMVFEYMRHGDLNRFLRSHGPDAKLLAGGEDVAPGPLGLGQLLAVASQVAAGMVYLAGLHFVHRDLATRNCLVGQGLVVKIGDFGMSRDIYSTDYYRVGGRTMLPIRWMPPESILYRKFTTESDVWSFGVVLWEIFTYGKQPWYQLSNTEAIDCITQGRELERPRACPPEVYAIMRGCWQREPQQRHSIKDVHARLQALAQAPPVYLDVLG
How it was run: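 Ba/F3 cells stably expressing TPM3-NTRK1 or ETV6-NTRK3 fusions, 2000/well, exposed 72 h to compound at 300 to 0.05 nM final (3-fold series, 0.5% DMSO). Viability by CellTiter-Glo luminescence; IC50 by four-parameter nonlinear regression.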

Structure (SMILES)	degree of plasma protein binding (in words) ([1]; as shown in Table 16)	recovery at 6 h, 1 μM [1]	fraction unbound at 6 h, 1 μM [1]	recovery at 6 h, 1 μM [2]	fraction unbound at 6 h, 1 μM [2]	IC50 (Ba/F3-TPM3-NTRK1)
CC(C)(O)c1nnc(-c2cnn3ccc(N4CCC[C@@H]4c4cc(F)ccc4F)nc23)[nH]1 [Compound 7, (R)-2-(5-(5-(2-(2,5-difluorophenyl)pyrrolidin-1-yl)pyrazolo[1,5-a]pyrimidin-3-yl)-4H-1,2,4-triazol-3-yl)propan-2-ol]		96.3%	0.0988	90.8%		8.17 nM
C[C@H](N)c1nnc(-c2cnn3ccc(N4CCC[C@@H]4c4cc(F)ccc4F)nc23)[nH]1 [Compound 11, (S)-1-(5-(5-((R)-2-(2,5-difluorophenyl)pyrrolidin-1-yl)pyrazolo[1,5-a]pyrimidin-3-yl)-4H-1,2,4-triazol-3-yl)ethan-1-amine]		89.3%	0.284	87.5%	0.289	13.6 nM
CC(C)(O)Cc1nnc(-c2cnn3ccc(N4CCC[C@@H]4c4cc(F)ccc4F)nc23)[nH]1 [Compound 30, (R)-1-(5-(5-(2-(2,5-difluorophenyl)pyrrolidin-1-yl)pyrazolo[1,5-a]pyrimidin-3-yl)-4H-1,2,4-triazol-3-yl)-2-methylpropan-2-ol]		90.7%	0.139	92.5%	0.174	13.8 nM
C[C@@H](CO)c1nnc(-c2cnn3ccc(N4CCC[C@@H]4c4cc(F)ccc4F)nc23)[nH]1 [Compound 39, (R)-2-(5-(5-((R)-2-(2,5-difluorophenyl)pyrrolidin-1-yl)pyrazolo[1,5-a]pyrimidin-3-yl)-4H-1,2,4-triazol-3-yl)propan-1-ol]		97.4%	0.111	89.7%	0.116	7.42 nM

Second part, the molecule after the results:

degree of plasma protein binding (in words) ([1]; as shown in Table 16)	recovery at 6 h, 1 μM [1]	fraction unbound at 6 h, 1 μM [1]	recovery at 6 h, 1 μM [2]	fraction unbound at 6 h, 1 μM [2]	IC50 (Ba/F3-TPM3-NTRK1)	Structure (SMILES)
high degree of plasma protein binding	93.8%	0.0323	93.8%	0.0729		Cc1nnc(-c2cnn3ccc(N4CCCC4c4cc(F)ccc4F)nc23)[nH]1 (centres unmarked) [Comparative compound A, 5-[2-(2,5-Difluorophenyl)pyrrolidin-1-yl]-3-(5-methyl-1H-1,2,4-triazol-3-yl)pyrazolo[1,5-a]pyrimidine, reference compound]
		0.0691		0.1	3.55 nM	C[C@H](O)c1nnc(-c2cnn3ccc(N4CCC[C@@H]4c4cc(F)ccc4F)nc23)[nH]1 [Compound 4, (S)-1-(5-(5-((R)-2-(2,5-difluorophenyl)pyrrolidin-1-yl)pyrazolo[1,5-a]pyrimidin-3-yl)-4H-1,2,4-triazol-3-yl)ethan-1-ol]
		0.0604		0.0699	20.9 nM	OC1(c2nnc(-c3cnn4ccc(N5CCC[C@@H]5c5cc(F)ccc5F)nc34)[nH]2)CCC1 [Compound 23, (R)-1-(5-(5-(2-(2,5-difluorophenyl)pyrrolidin-1-yl)pyrazolo[1,5-a]pyrimidin-3-yl)-4H-1,2,4-triazol-3-yl)cyclobutan-1-ol]
	96.8%	0.121	98.9%	0.131	3.88 nM	OC1CC(c2nnc(-c3cnn4ccc(N5CCC[C@@H]5c5cc(F)ccc5F)nc34)[nH]2)C1 (stereo partly drawn) [Compound 31, (R)-3-(5-(5-(2-(2,5-difluorophenyl)pyrrolidin-1-yl)pyrazolo[1,5-a]pyrimidin-3-yl)-4H-1,2,4-triazol-3-yl)cyclobutan-1-ol]
